The values that follow come from patent US8143293B2, “Kinase inhibitors useful for the treatment of myleoprolific diseases and other proliferative diseases” (Deciphera Pharmaceuticals, LLC, priority 2007, dated 2012).

Changes are numbered by the printed parent chain.

Usually IC50 stands for the concentration needed to halve the response being measured.

The target of experiment [1] is T1, BaF3 cells transfected with wild type p210 BCR-Abl (Homo sapiens, UniProt P00519).
T1 construct: fused on or other part: P11274 (Breakpoint cluster region protein)
Put plainly: Ba/F3 p210 whole cell proliferation assay. The conditions noted are these: 72 hours, Cell Titer Blue; read-out: Whole Cell Antiproliferation IC50, Ba/F3 p210 whole cell proliferation assay. It counts as cell-based. Here is the method: (§1) BaF3 cells (parental or transfected with the following: wild type p210 BCR-Abl and T315I p210 BCR-Abl was obtained from Professor Richard Van Etten (New England Medical Center, Boston, Mass.). Briefly, cells were grown in RPMI 1640 supplemented with 10% characterized fetal bovine serum (HyClone, Logan, Utah) at 37 degrees Celsius, 5% CO2, 95% humidity. Cells were allowed to expand until reaching 80% saturation at which point they were subcultured or harvested for assay use.
(§2) A serial dilution of test compound was dispensed into a 96 well black clear bottom plate (Corning, Corning, N.Y.). For each cell line, three thousand cells were added per well in complete growth medium. Plates were incubated for 72 hours at 37 degrees Celsius, 5% CO2, 95% humidity. At the end of the incubation period Cell Titer Blue (Promega, Madison, Wis.) was added to each well and an additional 4.5 hour incubation at 37 degrees Celsius, 5% CO2, 95% humidity was performed. Plates were then read on a BMG Fluostar Optima (BMG, Durham, N.C.) using an excitation of 544 nm and an emission of 612 nm. Data was analyzed using Prism software (Graphpad, San Diego, Calif.) to calculate IC50's.

The target in experiment [2] is T2, T315I Abl kinase (SEQ ID NO:2) (Homo sapiens, UniProt P00519, T315I).
T2 construct: purchased deCode Genetics
T2 sequence (P00519 with tags, fused parts or gaps T315I): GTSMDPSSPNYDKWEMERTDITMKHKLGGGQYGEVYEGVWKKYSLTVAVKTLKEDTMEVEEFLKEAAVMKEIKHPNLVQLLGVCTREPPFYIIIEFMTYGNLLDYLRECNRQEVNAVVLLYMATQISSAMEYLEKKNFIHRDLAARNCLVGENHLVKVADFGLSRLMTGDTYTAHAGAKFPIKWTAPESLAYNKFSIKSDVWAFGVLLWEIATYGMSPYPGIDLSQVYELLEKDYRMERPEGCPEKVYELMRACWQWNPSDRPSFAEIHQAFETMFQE
Put plainly: T315I Abl kinase (SEQ ID NO:2) assay, pyruvate kinase/lactate dehydrogenase coupled. The conditions noted are these: 1 h preincubation, ATP 500 μM; read-out: Biochemical IC50, Abl T315I Enzyme Assay. The procedure:
Abl Kinase (SEQ ID NO:2) Assay
Activity of T315I Abl kinase (SEQ ID NO:2) was determined by following the production of ADP from the kinase reaction through coupling with the pyruvate kinase/lactate dehydrogenase system (e.g., Schindler, et al. Science (2000) 289, 1938-1942). In this assay, the oxidation of NADH (thus the decrease at A340 nm) was continuously monitored spectrophometrically. The reaction mixture (100 μl) contained Abl kinase (4.4 nM, […] Abl from deCode Genetics), peptide substrate (EAIYAAPFAKKK, 0.2 mM), MgCl2 (10 mM), pyruvate kinase (4 units), lactate dehydrogenase (0.7 units), phosphoenol pyruvate (1 mM), and NADH (0.28 mM) in 90 mM Tris buffer containing 0.2% octyl-glucoside and 1% DMSO, pH 7.5. Test compounds were incubated with T315I Abl (SEQ ID NO:2) and other reaction reagents at 30° C. for 1 h before ATP (500 μM) was added to start the reaction. The absorption at 340 nm was monitored continuously for 2 hours at 30° C. on Polarstar Optima plate reader (BMG). The reaction rate was calculated using the 1.0 to 2.0 h time frame. Percent inhibition was obtained by comparison of reaction rate with that of a control (i.e. with no test compound). IC50 values were calculated from a series of percent inhibition values determined at a range of inhibitor concentrations using software routines as implemented in the GraphPad Prism software package.

The target of experiment [3] is T3, Abl kinase (SEQ ID NO: 1) (Homo sapiens, UniProt P00519).
T3 construct: purchased deCode Genetics
T3 sequence (P00519 with tags, fused parts or gaps): T2 sequence (P00519 with tags, fused parts or gaps T315I) with I94T
Put plainly: Abl kinase (SEQ ID NO:1) assay, pyruvate kinase/lactate dehydrogenase coupled. The conditions noted are these: 2 h preincubation, ATP 500 μM; read-out: Biochemical IC50, Abl Enzyme Assay. The procedure: Abl Kinase (SEQ ID NO:1) Assay
Activity of Abl kinase (SEQ ID NO: 1) was determined by following the production of ADP from the kinase reaction through coupling with the pyruvate kinase/lactate dehydrogenase system (e.g., Schindler, et al. Science (2000) 289, 1938-1942). In this assay, the oxidation of NADH (thus the decrease at A340 nm) was continuously monitored spectrophometrically. The reaction mixture (100 μl) contained Abl kinase (1 nM. Abl from deCode Genetics), peptide substrate (EAIYAAPFAKKK, 0.2 mM), MgCl2 (10 mM), pyruvate kinase (4 units), lactate dehydrogenase (0.7 units), phosphoenol pyruvate (1 mM), and NADH (0.28 mM) in 90 mM Tris buffer containing 0.2% octyl-glucoside and 3.5% DMSO, pH 7.5. Test compounds were incubated with Abl (SEQ ID NO:1) and other reaction reagents at 30° C. for 2 h before ATP (500 μM) was added to start the reaction. The absorption at 340 nm was monitored continuously for 2 hours at 30° C. on Polarstar Optima plate reader (BMG). The reaction rate was calculated using the 1.0 to 2.0 h time frame. Percent inhibition was obtained by comparison of reaction rate with that of a control (i.e. with no test compound). IC50 values were calculated from a series of percent inhibition values determined at a range of inhibitor concentrations using software routines as implemented in the GraphPad Prism software package.

Experiment [4] deals with T4, BaF3 cells transfected with T315I p210 BCR-Abl (Homo sapiens, UniProt P00519, T315I, cells depend on it).
T4 construct: fused on or other part: P11274 (Breakpoint cluster region protein)
Description: Ba/F3 p210 T315I whole cell proliferation assay. In kind it is cell-based. The conditions noted are these: 72 hours, Cell Titer Blue; read-out: Whole Cell Antiproliferation IC50, Ba/F3 p210 T315I whole cell proliferation assay. Here is the method: as §1, §2
For orientation: Resazurin is reduced to fluorescent resorufin, in cell work by metabolically active cells.

The target in experiment [5] is T5, C-Met kinase (SEQ ID NO:10) (Homo sapiens, UniProt P08581).
T5 construct: 956-1390, from Invitrogen, catalogue #PV3143; His6 (N-terminal leader MSYYHHHHHH... with TEV and thrombin sites) (N); purchased Invitrogen PV3143
Put plainly: C-Met kinase (SEQ ID NO:10) assay, pyruvate kinase/lactate dehydrogenase coupled. The conditions noted are these: 0.5 h preincubation, ATP 100 μM; read-out: Biochemical IC50, c-Met Enzyme Assay. The procedure:
C-Met Kinase (SEQ ID NO:10) Assay
Activity of C-Met kinase (SEQ ID NO:10) was determined by following the production of ADP from the kinase reaction through coupling with the pyruvate kinase/lactate dehydrogenase system (e.g., Schindler, et al. Science (2000) 289, 1938-1942). In this assay, the oxidation of NADH (thus the decrease at A340 nm) was continuously monitored spectrophometrically. The reaction mixture (100 μl) contained C-Met (c-Met residues; 956-1390, from Invitrogen, catalogue #PV3143, […]), polyE4Y (1 mg/ml), MgCl2 (10 mM), pyruvate kinase (4 units), lactate dehydrogenase (0.7 units), phosphoenol pyruvate (1 mM), and NADH (0.28 mM) in 90 mM Tris buffer containing 0.25 mM DTT, 0.2% octyl-glucoside and 1% DMSO, pH 7.5. Test compounds were incubated with C-Met (SEQ ID NO:10) and other reaction reagents at 22° C. for 0.5 h before ATP (100 μM) was added to start the reaction. The absorption at 340 nm was monitored continuously for 2 hours at 30° C. on Polarstar Optima plate reader (BMG). The reaction rate was calculated using the 1.0 to 2.0 h time frame. Percent inhibition was obtained by comparison of reaction rate with that of a control (i.e. with no test compound). IC50 values were calculated from a series of percent inhibition values determined at a range of inhibitor concentrations using software routines as implemented in the GraphPad Prism software package.

T5 sequence (P08581 with tags, fused parts or gaps): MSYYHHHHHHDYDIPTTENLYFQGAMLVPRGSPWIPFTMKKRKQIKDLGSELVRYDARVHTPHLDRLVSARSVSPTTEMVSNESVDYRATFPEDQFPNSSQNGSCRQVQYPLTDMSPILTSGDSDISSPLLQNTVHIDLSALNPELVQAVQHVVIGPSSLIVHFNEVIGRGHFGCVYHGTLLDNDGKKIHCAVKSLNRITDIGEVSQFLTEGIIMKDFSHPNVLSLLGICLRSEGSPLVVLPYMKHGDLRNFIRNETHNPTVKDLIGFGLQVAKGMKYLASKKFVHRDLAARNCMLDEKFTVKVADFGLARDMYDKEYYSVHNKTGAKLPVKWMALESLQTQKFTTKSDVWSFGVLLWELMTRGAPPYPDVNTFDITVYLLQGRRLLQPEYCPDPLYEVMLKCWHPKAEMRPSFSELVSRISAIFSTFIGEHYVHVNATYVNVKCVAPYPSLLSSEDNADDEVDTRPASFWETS

As for `Cn1cc(-c2cc(Oc3ccc(NC(=O)Nc4cc(C(F)(F)F)nn4C)c(F)c3)ccn2)cn1` [Example 16, 1-(2-fluoro-4-(2-(1-methyl-1H-pyrazol-4-yl)pyridin-4-yloxy)phenyl)-3-(1-methyl-3-(trifluoromethyl)-1H-pyrazol-5-yl)urea], the GI50 in experiment [1] was below 100 nM; in experiment [4] it was below 1000 nM. Also, the concentration for half-maximal inhibition (IC50) was below 1000 nM in experiment [2], below 100 nM in experiment [3] and below 10000 nM in experiment [5].
For the compound `Cn1cc(-c2cc(Oc3ccc(NC(=O)Nc4cc(C(C)(C)C)on4)c(F)c3)ccn2)cn1` [Example 4, 1-(5-t-butylisoxazol-3-yl)-3-(2-fluoro-4-(2-(1-methyl-1H-pyrazol-4-yl)pyridin-4-yloxy)phenyl)urea], the GI50 in experiment [1] and in experiment [4] was below 100 nM each time. In addition, the IC50 is below 100 nM in experiment [2], below 100 nM in experiment [3] and below 1000 nM in experiment [5].
`CC(C)n1cc(NC(=O)Nc2ccc(Oc3ccnc(-c4cnn(C)c4)c3)cc2F)c(C(F)(F)F)n1` [Example 18, 1-(2-fluoro-4-(2-(1-methyl-1H-pyrazol-4-yl)pyridin-4-yloxy)phenyl)-3-(1-isopropyl-3-(trifluoromethyl)-1H-pyrazol-4-yl)urea]: the GI50 in experiment [1] and in experiment [4] was below 100 nM each time. For the same compound, the results for the IC50 in experiment [3] and in experiment [5] were below 100 nM and below 10000 nM, respectively.
For “tert-butyl 4-(2-tert-butyl-5-(3-(2-fluoro-4-(2-(1-methyl-1H-pyrazol-4-yl)pyridin-4-yloxy)phenyl)ureido)pyrimidin-4-yl)piperazine-1-carboxylate [Example 40]”, the GI50 in experiment [1] and in experiment [4] was below 1000 nM throughout. Further, the IC50 is below 1000 nM in experiment [2], below 100 nM in experiment [3] and below 100000 nM in experiment [5].
As for `Cc1c(Oc2ccnc(-c3cnn(C)c3)c2)ccc(NC(=O)Nc2cnn(C(C)(C)C)c2)c1F` [Example 17, 1-(1-tert-butyl-1H-pyrazol-4-yl)-3-(2-fluoro-3-methyl-4-(2-(1-methyl-1H-pyrazol-4-yl)pyridin-4-yloxy)phenyl)urea], the GI50 in experiment [1] and in experiment [4] was below 100 nM in each case. The values for the IC50 in experiment [2], in experiment [3] and in experiment [5] were below 100 nM, below 100 nM and below 1000 nM, respectively.
Turning to “1-(3-cyclopentylisoxazol-5-yl)-3-(2-fluoro-4-(2-(1-methyl-1H-pyrazol-4-yl)pyridin-4-yloxy)phenyl)urea [Example 13]”, the GI50 in experiment [1] and in experiment [4] was below 100 nM each time. Besides, the IC50 is below 10000 nM in experiment [2], below 100 nM in experiment [3] and below 1000 nM in experiment [5].
As for `Cc1c(NC(=O)Nc2ccc(Oc3ccnc(-c4cnn(C)c4)c3)cc2F)cnn1C(C)C` [Example 19, 1-(2-fluoro-4-(2-(1-methyl-1H-pyrazol-4-yl)pyridin-4-yloxy)phenyl)-3-(1-isopropyl-5-methyl-1H-pyrazol-4-yl)urea], the figures for the GI50 in experiment [1] and in experiment [4] were below 100 nM and below 10000 nM, respectively. The results for the IC50 in experiment [2], in experiment [3] and in experiment [5] were below 1000 nM, below 1000 nM and below 10000 nM, respectively.
For the compound `Cn1cc(-c2cc(Oc3ccc(NC(=O)Nc4cc(C(F)(F)F)no4)c(F)c3)ccn2)cn1` [Example 7, 1-(2-fluoro-4-(2-(1-methyl-1H-pyrazol-4-yl)pyridin-4-yloxy)phenyl)-3-(3-(trifluoromethyl)isoxazol-5-yl)urea], the GI50 in experiment [1] is below 100 nM; in experiment [4] it was below 1000 nM. Moreover, the IC50 is below 100 nM in experiment [2], below 100 nM in experiment [3] and below 10000 nM in experiment [5].
`Cn1cc(-c2cc(Oc3ccc(NC(=O)Nc4ccn(C(C)(C)C)c4)c(F)c3)ccn2)cn1` [Example 30, 1-(1-tert-butyl-1H-pyrrol-3-yl)-3-(2-fluoro-4-(2-(1-methyl-1H-pyrazol-4-yl)pyridin-4-yloxy)phenyl)urea]: the GI50 was below 100 nM in experiment [1] and below 1000 nM in experiment [4]. Also, the concentration for half-maximal inhibition (IC50) was below 100 nM in experiment [2], below 100 nM in experiment [3] and below 10000 nM in experiment [5].
Consider `Cc1nn(C(C)C)cc1NC(=O)Nc1ccc(Oc2ccnc(-c3cnn(C)c3)c2)cc1F` [Example 20, 1-(2-fluoro-4-(2-(1-methyl-1H-pyrazol-4-yl)pyridin-4-yloxy)phenyl)-3-(1-isopropyl-3-methyl-1H-pyrazol-4-yl)urea], for which the GI50 in experiment [1] is below 100 nM; in experiment [4] it was below 1000 nM. Moreover, the half-inhibitory concentration (IC50) in experiment [2] is below 100 nM; in experiment [3] it was below 100 nM; in experiment [5] it was below 10000 nM.
